Data taken from ChEMBL document CHEMBL5120881, “Silencing Tautomerization to Isolate Unstable Physalins from Physalis minima” (J Nat Prod, 2022).
One block for each molecule: values may come before it.

Assays:
[1] = system: A549; experiment: Antiproliferative activity against human A549 cells assessed as reduction in cell viability incubated for 48 hrs by CCK8 assay; format: functional, cell-based; conditions: A549, 48 h
[2] = system: HepG2; experiment: Antiproliferative activity against human HepG2 cells assessed as reduction in cell viability incubated for 48 hrs by CCK8 assay; format: functional, cell-based; conditions: HepG2, 48 h
[3] = system: MCF7; experiment: Antiproliferative activity against human MCF7 cells assessed as reduction in cell viability incubated for 48 hrs by CCK8 assay; format: functional, cell-based; conditions: MCF7, 48 h
[4] = system: SGC-7901; experiment: Antiproliferative activity against human SGC-7901 cells assessed as reduction in cell viability incubated for 48 hrs by CCK8 assay; format: functional, cell-based; conditions: SGC-7901, 48 h
[5] = Cytotoxicity against mouse RAW264.7 cells assessed as cell viability at 10 uM incubated for 48 hrs by CCK8 assay; format: toxicity, cell-based; conditions: read-out: Activity
[6] = Cytotoxicity against human L02 cells assessed as cell viability at 10 uM incubated for 48 hrs by CCK8 assay; format: toxicity, cell-based; conditions: read-out: Activity
[7] = system: RAW264.7; experiment: Antiinflammatory activity in mouse RAW264.7 assessed as inhibition of LPS-stimulated NO production pretreated with LPS followed by compund addition by Griess reagent based microplate reader assay; format: functional, cell-based

SMILES: C=C1C(=O)O[C@@H]2C[C@@]1(C)[C@@H]1C(=O)[C@@]3(O)O[C@]14[C@@]2(C)OC(=O)[C@@]4(O)CC[C@H]1[C@H]3CC=C2CC=CC(=O)[C@@]21C
IC50 [1]: 8.9 µM
IC50 [2]: 13.2 µM
IC50 [3]: 7.6 µM
IC50 [4]: 2.8 µM
viability at 48 h, 10 µM [5]: 90.7%
viability at 48 h, 10 µM [6]: 94.2%
inhibition (INH) [7]: <50%

SMILES: C[C@@]12C[C@H]3OC(=O)[C@@H]1CO[C@@]14O[C@@]5([C@H]2C1=O)[C@@]3(C)OC(=O)[C@@]5(O)CC[C@H]1[C@H]4C[C@@H](O)[C@@]2(Cl)CC=CC(=O)[C@]12C
IC50 [1]: 21.7 µM
IC50 [2]: 24.7 µM
IC50 [3]: 12.5 µM
IC50 [4]: 12.7 µM
viability at 48 h, 10 µM [5]: 98.3%
viability at 48 h, 10 µM [6]: 95.3%
inhibition (INH) [7]: <50%

IC50 [1]: 11.4 µM
IC50 [2]: 14 µM
IC50 [3]: 10.6 µM
IC50 [4]: 7.8 µM
IC50 ([7]; Mus musculus, RAW264.7): 25.6 µM
SMILES: C=C1C(=O)O[C@@H]2C[C@@]1(C)[C@@H]1C(=O)[C@@]3(O)O[C@]14[C@@]2(C)OC(=O)[C@@]4(O)CC[C@H]1[C@H]3C[C@@H](O)[C@@]2(OC)CC=CC(=O)[C@]12C
viability at 48 h, 10 µM [5]: 94.2%
viability at 48 h, 10 µM [6]: 98.1%

SMILES: C[C@]12C(=O)CC=CC1=CC[C@@H]1[C@@H]2CC[C@]2(O)C(=O)O[C@@]3(C)[C@H]4C[C@]5(C)[C@@H](CO[C@]16O[C@@]32[C@H]5C6=O)C(=O)O4
IC50 [1]: 4.3 µM
IC50 [2]: 9.8 µM
IC50 [3]: 2.5 µM
IC50 [4]: 8.9 µM
viability at 48 h, 10 µM [5]: 94.2%
viability at 48 h, 10 µM [6]: 92.5%
inhibition (INH) [7]: <50%

SMILES: C[C@]12C(=O)C=CCC1=CC[C@@H]1[C@@H]2CC[C@]2(O)C(=O)O[C@@]3(C)[C@H]4C[C@]5(C)[C@@H](CO[C@@]16O[C@@]32[C@H]5C6=O)C(=O)O4 [PHYSALIN B]
IC50 [1]: 11.9 µM
IC50 [2]: 11.7 µM
IC50 [3]: 11.2 µM
IC50 [4]: 12.1 µM
viability at 48 h, 10 µM [5]: 95.8%
viability at 48 h, 10 µM [6]: 97.8%
inhibition (INH) [7]: <50%
